Results taken from PubChem BioAssay (NCI).
Where “and” joins values, the source holds several entries; their conditions need not be identical. Equal values may be shown once.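 Results reflect a 48-hour exposure of cells in 96-well plates to compound at five concentrations. Here, GI50 denotes the concentration required for 50% inhibition of growth. At the TGI there is no net growth.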

What was measured:
Assay in all cases: NCI-60 cell line screen, 48 h
A498 renal = system: A498 renal
CCRF-CEM leukemia = system: CCRF-CEM leukemia
COLO 205 colon = system: COLO 205 colon
MALME-3M melanoma = system: MALME-3M melanoma
MCF7 breast = system: MCF7 breast
MDA-MB-435 = system: MDA-MB-435
RPMI-8226 leukemia = system: RPMI-8226 leukemia
RXF 393 renal = system: RXF 393 renal
SF-268 CNS = system: SF-268 CNS
SF-295 CNS = system: SF-295 CNS
SK-OV-3 ovarian = system: SK-OV-3 ovarian
T-47D breast = system: T-47D breast
HL-60(TB) leukemia = system: HL-60(TB) leukemia

Row | Compound | TGI (A498 renal) | TGI (CCRF-CEM leukemia) | TGI (COLO 205 colon) | TGI (MALME-3M melanoma) | TGI (MCF7 breast) | TGI (MDA-MB-435) | TGI (RPMI-8226 leukemia) | TGI (RXF 393 renal) | TGI (SF-268 CNS) | TGI (SF-295 CNS) | TGI (SK-OV-3 ovarian) | TGI (T-47D breast) | TGI (HL-60(TB) leukemia) | GI50 (RXF 393 renal) | GI50 (COLO 205 colon) [µM] | GI50 (MCF7 breast) [µM] | GI50 (RPMI-8226 leukemia) [µM] | GI50 (SF-268 CNS) [µM] | GI50 (SK-OV-3 ovarian) [µM] | GI50 (T-47D breast) [µM]
1 | O=C1NC(=O)C2(CCCCCC2)N1 | > 100 µM | > 100 µM | > 100 µM | > 100 µM | > 100 µM | > 100 µM | > 100 µM | > 100 µM | > 100 µM | > 100 µM | > 100 µM | > 100 µM | – | – | – | – | – | – | – | –
2 | COC(=O)C1OC(O[C@H]2CC[C@]3(C)[C@H]4CC=C5[C@@H]6CC(C)(C)CC[C@]6(C(=O)OC6OCC(O)C(O)C6OC6OC(C)C(OC7OCC(O)C(OC8OCC(O)C(O)C8O)C7O)C(OC7OCC(O)C(O)C7O)C6O)CC[C@@]5(C)[C@]4(C)CC[C@H]3C2(C)C)C(O)C(OC2OCC(O)C(O)C2O)C1O (stereo partly specified) | 3.55 µM and 4.34 µM | > 100 µM and 30.2 µM | 2.97 µM and 3.08 µM | 19.4 µM and 18.3 µM | > 84.5 µM and 20.9 µM | 4.13 µM and 4.42 µM | 9 µM and 15.6 µM | > 67 µM and 35.6 µM | > 76.2 µM and 19.9 µM | 11.5 µM and 17 µM | > 100 µM and 27.8 µM | 42.3 µM and 19.2 µM | 4.36 µM and 5.23 µM | 6.36 µM and 13.7 µM | – | – | – | – | – | –
3 | CCCCCCCCCCCCCCCCOCC(Cl)COP(=O)(O)OP(=O)(O)OCC1OC(n2cc(C)c(=O)[nH]c2=O)CC1O (stereo unspecified) | > 100 µM | > 100 µM | > 100 µM | > 100 µM | > 100 µM | > 100 µM | > 100 µM | > 100 µM | > 100 µM | > 100 µM | > 100 µM | > 100 µM | > 100 µM | – | – | – | – | – | – | –
4 | CN(NC(=O)c1cccs1)C1=NCCCCN1 | > 100 µM | > 100 µM | > 100 µM | > 100 µM | > 100 µM | > 100 µM | > 100 µM | > 100 µM | > 100 µM | > 100 µM | > 100 µM | > 100 µM | > 100 µM | – | – | – | – | – | – | –
5 | CN(C)CCN=C1Nc2ccccc2C(=S)N2CSCC12 (stereo unspecified) | > 100 µM | > 100 µM | > 100 µM | > 100 µM | > 100 µM | > 100 µM | > 100 µM | > 100 µM | > 100 µM | > 100 µM | > 100 µM | > 100 µM | – | – | – | – | – | – | – | –
6 | CC(C)NC(=O)OCc1c(COC(=O)NC(C)C)c(-c2cc[n+](COC(=O)C(C)(C)C)cc2)n2c1CCC2 | > 100 µM | > 100 µM | > 100 µM | > 100 µM | > 100 µM | > 100 µM | > 100 µM | > 100 µM | > 100 µM | > 100 µM | > 100 µM | > 100 µM | > 100 µM | – | – | – | – | – | – | –
7 | CCOC(=O)[C@@]12C3C=CC(CC3)[C@]1(C(=O)c1ccccc1)C(=O)C(=O)N2c1ccccc1 (stereo partly specified) | > 100 µM | – | > 100 µM | > 100 µM | > 100 µM | > 100 µM | > 100 µM | > 100 µM | > 100 µM | > 100 µM | > 100 µM | > 100 µM | – | – | – | – | – | – | – | –
8 | O=c1[nH]nc(Cc2ccccc2)n1/N=C\c1ccccc1 | > 100 µM | > 100 µM | > 100 µM | > 100 µM | > 100 µM | > 100 µM | > 100 µM | > 100 µM | – | > 100 µM | – | > 100 µM | > 100 µM | – | – | – | – | – | – | –
9 | COC(=O)/C=C1/CCC(C)(C(=O)NS(=O)(=O)c2ccc(C)cc2)C1(C)C (stereo unspecified) | > 100 µM | > 100 µM | > 100 µM | > 100 µM | > 100 µM | > 100 µM | > 100 µM | > 100 µM | > 100 µM | > 100 µM | > 100 µM | > 100 µM | > 100 µM | – | – | – | – | – | – | –
10 | COc1ccc(OCc2ccc3nc(-c4ccccc4)c(Cl)nc3c2)cc1 | 81.2 µM | 45.4 µM | 81.5 µM | 37.3 µM | > 100 µM | > 100 µM | > 100 µM | – | > 100 µM | 62.1 µM | – | > 100 µM | 45.9 µM | – | – | – | – | – | – | –
11 | CC1=C/C(=N\O)C(C(O)(C(F)(F)F)C(F)(F)F)C(C)(C)C1 (stereo unspecified) | > 10 µM | > 10 µM | > 10 µM | > 10 µM | > 10 µM | > 10 µM | – | – | > 10 µM | > 10 µM | > 10 µM | > 10 µM | – | – | – | – | – | – | – | –
12 | COc1ccc2[nH]cc([C@@H]3C4CCC(C4)[C@H]3NCc3cccc(CN[C@H]4C5CCC(C5)[C@@H]4c4c[nH]c5ccc(OC)cc45)c3)c2c1 | 3.22 µM and 3.25 µM | 1.08 µM | 1.2 µM and 0.427 µM | 3.32 µM and 3.31 µM | 2.25 µM and 2.86 µM | 0.988 µM and 0.962 µM | 1.65 µM and 1.26 µM | 3.1 µM and 2.79 µM | 2.52 µM and 2.93 µM | 2.97 µM and 3.08 µM | 2.94 µM and 2.95 µM | 2.95 µM | 0.453 µM and 0.503 µM | – | 0.206 | 0.805 | 0.66 | 1.23 | 1.6 | 1.33
13 | CC(=O)Nc1cc2c3c(c1)CCCN3CCC2 | > 100 µM | > 100 µM | > 100 µM | > 100 µM | > 100 µM | > 100 µM | > 100 µM | > 100 µM | – | > 100 µM | > 100 µM | > 100 µM | > 100 µM | – | – | – | – | – | – | –
14 | O=P1(Oc2ccccc2)N(CCCl)CCN1c1ccccc1 (stereo unspecified) | > 100 µM | > 100 µM | > 100 µM | > 100 µM | > 100 µM | > 100 µM | > 100 µM | > 100 µM | > 100 µM | > 100 µM | > 100 µM | > 100 µM | > 100 µM | – | – | – | – | – | – | –
15 | CCC[C@H](NS(=O)c1ccc(C)cc1)C(C(=O)OCC)=C(c1ccccc1)c1ccccc1 (stereo partly specified) | 46 µM | > 100 µM | 46.1 µM | 36.1 µM | 43.2 µM | 35 µM | 55.8 µM | 29.6 µM | > 100 µM | 40 µM | > 100 µM | 88.6 µM | > 100 µM | – | – | – | – | – | – | –
16 | Nc1ccn(C2CCC(CO)O2)c(=S)n1 (stereo unspecified) | > 100 µM | > 100 µM | > 100 µM | > 100 µM | > 100 µM | > 100 µM | > 100 µM | > 100 µM | > 100 µM | > 100 µM | > 100 µM | > 100 µM | > 100 µM | – | – | – | – | – | – | –
17 | COCCCNC(=O)C1=C(C)NC(C)=C(C(=O)NCCCOC)C1 | > 100 µM | > 100 µM | > 100 µM | 41.2 µM | > 100 µM | > 100 µM | > 100 µM | > 100 µM | > 100 µM | > 100 µM | > 100 µM | > 100 µM | > 100 µM | – | – | – | – | – | – | –
